In article PMC7597557 (PLoS Pathogens, 2020):
Peptide text beside a SMILES is read from it.

Assays:
H-2 K^b = biological target: T1, H-2 K^b (Mus musculus, UniProt P01901); test: RMA-S K^b stabilization assay
T1 sequence (P01901 22-369): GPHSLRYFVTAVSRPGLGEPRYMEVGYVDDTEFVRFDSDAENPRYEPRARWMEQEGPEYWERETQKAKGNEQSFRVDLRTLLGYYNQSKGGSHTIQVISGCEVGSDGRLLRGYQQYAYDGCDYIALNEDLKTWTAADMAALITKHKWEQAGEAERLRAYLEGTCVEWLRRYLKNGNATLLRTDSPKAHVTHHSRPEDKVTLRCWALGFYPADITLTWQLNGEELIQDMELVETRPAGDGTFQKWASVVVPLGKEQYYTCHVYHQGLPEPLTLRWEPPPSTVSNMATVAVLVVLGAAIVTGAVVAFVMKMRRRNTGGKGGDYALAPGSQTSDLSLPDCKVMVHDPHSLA
T1 sequence (P01887 21-119 partner): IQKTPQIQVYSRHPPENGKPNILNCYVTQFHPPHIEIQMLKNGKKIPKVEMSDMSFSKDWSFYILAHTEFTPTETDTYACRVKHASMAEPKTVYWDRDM
Experimental: Data was analyzed after normalization and modeling using ECAnything (Prism 8). […] (A) RMA-S K^b stabilization assay. Variant peptides were titrated, added to RMA-S cells, and the relative H-2 K^b surface expression (MFI) was determined by flow cytometry. […] Each assay was repeated 4 times.
Titrated (100uM to 1pM) were added to RMA-S cells (5x10^4/well) and cultured overnight at 27C in 5% CO2. The cells were the shifted to 37C for 1–2 hours, and then their surface expression of K^b was analyzed by flow cytometry.
Normalized and fitted data from Fig 6A.using the ECanything nonlinear regression model (Prism 8) to fit the curves. By setting F = 50, the IC50 was determined for each data set. The points are the experimental data, the solid lines are the fitted line, and the dashed lines are the 95% confidence intervals. This experiment was repeated four times with similar results.

[1] = C57BL/6J mice, 37C, up to 60 minutes

Row | Compound | IC50 (H-2 K^b) [µM] | further results
1 | CC[C@H](C)[C@H](N)C(=O)N[C@@H](CCSC)C(=O)N[C@@H](Cc1ccc(O)cc1)C(=O)N[C@@H](CC(N)=O)C(=O)N[C@@H](Cc1ccc(O)cc1)C(=O)N1CCC[C@H]1C(=O)N[C@H](C(=O)N[C@@H](CCSC)C(=O)O)[C@@H](C)O [A10T] (H-IMYNYPTM-OH) | 28.1 | –
2 | CC[C@H](C)[C@H](N)C(=O)N[C@@H](CCSC)C(=O)N[C@@H](Cc1ccc(O)cc1)C(=O)N[C@@H](CC(N)=O)C(=O)N[C@@H](Cc1ccc(O)cc1)C(=O)N1CCC[C@H]1C(=O)N[C@H](C(=O)N[C@@H](CCSC)C(=O)O)C(C)C [A10V] (H-IMYNYPVM-OH) | 21.3 | –
3 | CC[C@H](C)[C@H](N)C(=O)N[C@@H](CCSC)C(=O)N[C@@H](Cc1ccc(O)cc1)C(=O)N[C@@H](CC(N)=O)C(=O)N[C@@H](Cc1ccc(O)cc1)C(=O)N1CCC[C@H]1C(=O)N[C@@H](C)C(=O)N[C@H](C(=O)O)[C@@H](C)CC [M11I] (H-IMYNYPAI-OH) | 29.1 | –
4 | CC[C@H](C)[C@H](N)C(=O)N[C@@H](CCSC)C(=O)N[C@@H](Cc1ccc(O)cc1)C(=O)N[C@@H](CC(N)=O)C(=O)N[C@@H](Cc1ccc(O)cc1)C(=O)N[C@@H](CO)C(=O)N[C@@H](C)C(=O)N[C@@H](CCSC)C(=O)O [P9S] (H-IMYNYSAM-OH) | 59.3 | –
5 | CC[C@H](C)[C@H](NC(=O)[C@@H](NC(=O)[C@@H](N)CO)[C@@H](C)CC)C(=O)N[C@@H](CC(N)=O)C(=O)N[C@@H](Cc1ccccc1)C(=O)N[C@@H](CCC(=O)O)C(=O)N[C@@H](CCCCN)C(=O)N[C@@H](CC(C)C)C(=O)O [reference compound] | 7.32 | –
6 | IMANAPAM | – | Stabilization of K^b (in words) (H-2 K^b; RMA-S cells, surface K^b by flow cytometry, negative control peptide): failed to stabilize K^b
7 | MSQIMYNYPTMLGHAGDMAGYAGTLQSLGAEIAV | – | cleaved bond [1]: Y21-A22
